What was measured:
Format in all cases: in vivo
ducksalad [1] = assay: Test Example 1: herbicidal effects in preemergence treatment under submerged conditions; conditions: dose 2.52 g/a
Procedure, shortened: (§1)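 Alluvial soil flooded to 4 cm depth; barnyardgrass, bulrush and ducksalad sown and 2.5-leaf rice seedlings transplanted. Same day, water-diluted emulsifiable concentrates applied to the water surface at set doses (g/a). Kept at 25–30 °C in greenhouse; effects scored 0–5 by mortality after three weeks.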

bulrush [2] = assay: as above; conditions: dose 2.52 g/a
Procedure, shortened: as §1

barnyardgrass [3] = assay: as above; conditions: dose 2.52 g/a
Procedure, shortened: as §1

velvetleaf [4] = assay: Test Example 3: herbicidal effects in soil treatment
Procedure, shortened: (§2)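 Seeds were sown in sterilized diluvial soil and covered with about 1.5 cm of soil. Compounds, formulated as emulsifiable concentrates and diluted with water, were sprayed evenly over the soil surface at set doses in g/a. Herbicidal effect was scored on a rating scale three weeks later.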

giant foxtail [5] = assay: as above
Procedure, shortened: as §2

common ragweed [6] = assay: as above
Procedure, shortened: as §2

redroot pigweed [7] = assay: as above
Procedure, shortened: as §2

common lambsquater [8] = assay: as above
Procedure, shortened: as §2

water foxtail [9] = assay: as above
Procedure, shortened: as §2

common chickweed [10] = assay: as above
Procedure, shortened: as §2

posumbu knotweed [11] = assay: as above
Procedure, shortened: as §2

large crabgrass [12] = assay: as above
Procedure, shortened: as §2

Italian ryegrass [13] = assay: as above
Procedure, shortened: as §2

wild oat [14] = assay: as above
Procedure, shortened: as §2

barnyardgrass [15] = assay: as above
Procedure, shortened: as §2

ducksalad [16] = assay: Test Example 2: herbicidal effects during the vegetation period under submerged conditions; conditions: treatment during the vegetation period under submerged conditions; dose 2.52 g/a
Procedure, shortened: (§3)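 Barnyardgrass, bulrush and ducksalad were co-sown in alluvial soil flooded to 4 cm and grown in a greenhouse at 25 to 30° C. At the 1- or 2-leaf stage, water-diluted emulsifiable concentrates went onto the water surface at set doses (g/a). Herbicidal effect was scored three weeks later on a graded scale.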

bulrush [17] = assay: as above; conditions: treatment during the vegetation period under submerged conditions; dose 2.52 g/a
Procedure, shortened: as §3

barnyardgrass [18] = assay: as above; conditions: treatment during the vegetation period under submerged conditions; dose 2.52 g/a
Procedure, shortened: as §3

velvetleaf [19] = assay: Test Example 4: herbicidal effect in foliage treatment
Procedure, shortened: (§4)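 A uniform foliar spray of emulsifiable concentrate, diluted with water to give the stated g/a dose, was applied to plants raised for 14 days from seed in sterilized diluvial soil at 25 to 30° C. Herbicidal effects were scored three weeks later.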

giant foxtail [20] = assay: as above
Procedure, shortened: as §4

common ragweed [21] = assay: as above
Procedure, shortened: as §4

redroot pigweed [22] = assay: as above
Procedure, shortened: as §4

common lambsquater [23] = assay: as above
Procedure, shortened: as §4

water foxtail [24] = assay: as above
Procedure, shortened: as §4

common chickweed [25] = assay: as above
Procedure, shortened: as §4

posumbu knotweed [26] = assay: as above
Procedure, shortened: as §4

beadstraw = assay: as above
Procedure, shortened: as §4

large crabgrass [27] = assay: as above
Procedure, shortened: as §4

Italian ryegrass [28] = assay: as above
Procedure, shortened: as §4

wild oat [29] = assay: as above
Procedure, shortened: as §4

barnyardgrass [30] = assay: as above
Procedure, shortened: as §4

transplanted rice = assay: Test Example 1: preemergence treatment under submerged conditions, effect on crop; conditions: dose 2.52 g/a
Procedure, shortened: as §1

[31] = dose 3.2 g/a, three weeks after the application
[32] = dose 6.3 g/a, three weeks after application

O=C1CCCON1Cc1ccccc1N(C(=O)OCCCl)S(=O)(=O)C(F)(F)F [III-14]
C: ducksalad, herbicidal effect (evaluation scale 0-5) (ducksalad [1]): 5 (mortality of 90% or above (nearly complete death))
B: bulrush, herbicidal effect (evaluation scale 0-5) (bulrush [2]): 5 (mortality of 90% or above (nearly complete death))
A: barnyardgrass, herbicidal effect (evaluation scale 0-5) (barnyardgrass [3]): 5 (mortality of 90% or above (nearly complete death))
herbicidal effect, I: velvetleaf (velvetleaf [4]; dose 3.2 g/a): 5 (mortality of 90% or above (nearly complete death))
herbicidal effect, E: giant foxtail (giant foxtail [5]; dose 3.2 g/a): 5 (mortality of 90% or above (nearly complete death))
herbicidal effect, J: common ragweed (common ragweed [6]; dose 3.2 g/a): 5 (mortality of 90% or above (nearly complete death))
herbicidal effect, K: redroot pigweed (redroot pigweed [7]; dose 3.2 g/a): 1 (mortality of at least 5% and less than 20%)
herbicidal effect, L: common lambsquater (common lambsquater [8]; dose 3.2 g/a): 0 (mortality of less than 5% (almost ineffective))
herbicidal effect, G: water foxtail (water foxtail [9]; dose 3.2 g/a): 5 (mortality of 90% or above (nearly complete death))
herbicidal effect, N: common chickweed (common chickweed [10]; dose 3.2 g/a): 5 (mortality of 90% or above (nearly complete death))
herbicidal effect, M: posumbu knotweed (posumbu knotweed [11]; dose 3.2 g/a): 3 (mortality of at least 40% and less than 70%)
herbicidal effect, D: large crabgrass (large crabgrass [12]; dose 3.2 g/a): 5 (mortality of 90% or above (nearly complete death))
herbicidal effect, H: Italian ryegrass (Italian ryegrass [13]; dose 3.2 g/a): 3 (mortality of at least 40% and less than 70%)
herbicidal effect, F: wild oat (wild oat [14]; dose 3.2 g/a): 0 (mortality of less than 5% (almost ineffective))
herbicidal effect, A: barnyardgrass (barnyardgrass [15]; dose 3.2 g/a): 5 (mortality of 90% or above (nearly complete death))
C: ducksalad, herbicidal effect (evaluation scale 0-5) (ducksalad [16]): 5 (mortality of 90% or above (nearly complete death))
B: bulrush, herbicidal effect (evaluation scale 0-5) (bulrush [17]): 5 (mortality of 90% or above (nearly complete death))
A: barnyardgrass, herbicidal effect (evaluation scale 0-5) (barnyardgrass [18]): 5 (mortality of 90% or above (nearly complete death))
I: velvetleaf, herbicidal effect (velvetleaf [19]; [31]): 5 (mortality of 90% or above (nearly complete death))
E: giant foxtail, herbicidal effect (giant foxtail [20]; [31]): 5 (mortality of 90% or above (nearly complete death))
J: common ragweed, herbicidal effect (common ragweed [21]; [31]): 4 (mortality of at least 70% and less than 90%)
K: redroot pigweed, herbicidal effect (redroot pigweed [22]; [31]): 3 (mortality of at least 40% and less than 70%)
L: common lambsquater, herbicidal effect (common lambsquater [23]; [31]): 0 (mortality of less than 5% (almost ineffective))
G: water foxtail, herbicidal effect (water foxtail [24]; [31]): 5 (mortality of 90% or above (nearly complete death))
N: common chickweed, herbicidal effect (common chickweed [25]; [31]): 4 (mortality of at least 70% and less than 90%)
M: posumbu knotweed, herbicidal effect (posumbu knotweed [26]; [31]): 0 (mortality of less than 5% (almost ineffective))
O: beadstraw, herbicidal effect (beadstraw; [31]): 5 (mortality of 90% or above (nearly complete death))
D: large crabgrass, herbicidal effect (large crabgrass [27]; [31]): 5 (mortality of 90% or above (nearly complete death))
H: Italian ryegrass, herbicidal effect (Italian ryegrass [28]; [31]): 4 (mortality of at least 70% and less than 90%)
F: wild oat, herbicidal effect (wild oat [29]; [31]): 0 (mortality of less than 5% (almost ineffective))
A: barnyardgrass, herbicidal effect (barnyardgrass [30]; [31]): 5 (mortality of 90% or above (nearly complete death))
a: transplanted rice, effect on crop (evaluation scale 0-5) (transplanted rice): 3 (mortality of at least 40% and less than 70%)

O=C1CCOCN1Cc1ccccc1NS(=O)(=O)C(F)(F)F [II-1]
C: ducksalad, herbicidal effect (evaluation scale 0-5) (ducksalad [1]): 5 (mortality of 90% or above (nearly complete death))
B: bulrush, herbicidal effect (evaluation scale 0-5) (bulrush [2]): 5 (mortality of 90% or above (nearly complete death))
A: barnyardgrass, herbicidal effect (evaluation scale 0-5) (barnyardgrass [3]): 5 (mortality of 90% or above (nearly complete death))
I: velvetleaf, herbicidal effect (evaluation scale 0-5) (velvetleaf [4]; dose 6.3 g/a): 5 (mortality of 90% or above (nearly complete death))
E: giant foxtail, herbicidal effect (evaluation scale 0-5) (giant foxtail [5]; dose 6.3 g/a): 5 (mortality of 90% or above (nearly complete death))
J: common ragweed, herbicidal effect (evaluation scale 0-5) (common ragweed [6]; dose 6.3 g/a): 5 (mortality of 90% or above (nearly complete death))
K: redroot pigweed, herbicidal effect (evaluation scale 0-5) (redroot pigweed [7]; dose 6.3 g/a): 1 (mortality of at least 5% and less than 20%)
L: common lambsquater, herbicidal effect (evaluation scale 0-5) (common lambsquater [8]; dose 6.3 g/a): 5 (mortality of 90% or above (nearly complete death))
G: water foxtail, herbicidal effect (evaluation scale 0-5) (water foxtail [9]; dose 6.3 g/a): 5 (mortality of 90% or above (nearly complete death))
N: common chickweed, herbicidal effect (evaluation scale 0-5) (common chickweed [10]; dose 6.3 g/a): 5 (mortality of 90% or above (nearly complete death))
M: posumbu knotweed, herbicidal effect (evaluation scale 0-5) (posumbu knotweed [11]; dose 6.3 g/a): 1 (mortality of at least 5% and less than 20%)
D: large crabgrass, herbicidal effect (evaluation scale 0-5) (large crabgrass [12]; dose 6.3 g/a): 5 (mortality of 90% or above (nearly complete death))
H: Italian ryegrass, herbicidal effect (evaluation scale 0-5) (Italian ryegrass [13]; dose 6.3 g/a): 3 (mortality of at least 40% and less than 70%)
F: wild oat, herbicidal effect (evaluation scale 0-5) (wild oat [14]; dose 6.3 g/a): 0 (mortality of less than 5% (almost ineffective))
A: barnyardgrass, herbicidal effect (evaluation scale 0-5) (barnyardgrass [15]; dose 6.3 g/a): 5 (mortality of 90% or above (nearly complete death))
C: ducksalad, herbicidal effect (evaluation scale 0-5) (ducksalad [16]): 5 (mortality of 90% or above (nearly complete death))
B: bulrush, herbicidal effect (evaluation scale 0-5) (bulrush [17]): 5 (mortality of 90% or above (nearly complete death))
A: barnyardgrass, herbicidal effect (evaluation scale 0-5) (barnyardgrass [18]): 5 (mortality of 90% or above (nearly complete death))
I: velvetleaf, herbicidal effect (velvetleaf [19]; [32]): 5 (mortality of 90% or above (nearly complete death))
E: giant foxtail, herbicidal effect (giant foxtail [20]; [32]): 5 (mortality of 90% or above (nearly complete death))
J: common ragweed, herbicidal effect (common ragweed [21]; [32]): 4 (mortality of at least 70% and less than 90%)
K: redroot pigweed, herbicidal effect (redroot pigweed [22]; [32]): 0 (mortality of less than 5% (almost ineffective))
L: common lambsquater, herbicidal effect (common lambsquater [23]; [32]): 4 (mortality of at least 70% and less than 90%)
G: water foxtail, herbicidal effect (water foxtail [24]; [32]): 5 (mortality of 90% or above (nearly complete death))
N: common chickweed, herbicidal effect (common chickweed [25]; [32]): 4 (mortality of at least 70% and less than 90%)
M: posumbu knotweed, herbicidal effect (posumbu knotweed [26]; [32]): 0 (mortality of less than 5% (almost ineffective))
O: beadstraw, herbicidal effect (beadstraw; [32]): 4 (mortality of at least 70% and less than 90%)
D: large crabgrass, herbicidal effect (large crabgrass [27]; [32]): 5 (mortality of 90% or above (nearly complete death))
H: Italian ryegrass, herbicidal effect (Italian ryegrass [28]; [32]): 4 (mortality of at least 70% and less than 90%)
F: wild oat, herbicidal effect (wild oat [29]; [32]): 1 (mortality of at least 5% and less than 20%)
A: barnyardgrass, herbicidal effect (barnyardgrass [30]; [32]): 5 (mortality of 90% or above (nearly complete death))
a: transplanted rice, effect on crop (evaluation scale 0-5) (transplanted rice): 3 (mortality of at least 40% and less than 70%)

Reference: US20120029187A1, “HALOALKYLSULFONANILIDE DERIVATIVE” (Nissan Chemical Industries, Ltd., priority 2009, published 2012)
